Measured values as given in ChEMBL document CHEMBL1142111, “Induced production of emericellamides A and B from the marine-derived fungus Emericella sp. in competing co-culture” (J Nat Prod, 2007).
≈ marks a conversion by molar mass, not a printed value.

Experiments:
HCT-116 = assay: Cytotoxicity against human HCT116 cells; assay type: cell-based
Staphylococcus aureus = assay: Antimicrobial activity against methicillin-resistant Staphylococcus aureus; assay type: functional

SMILES | IC50 (HCT-116) | MIC (Staphylococcus aureus)
CCCCCC[C@H](C)[C@H]1OC(=O)[C@H](C)NC(=O)[C@H](C)NC(=O)[C@H](CC(C)C)NC(=O)[C@H](C(C)C)NC(=O)CNC(=O)[C@@H]1C [EMERICELLAMIDE A] | 23 µM | 3.8 µM (≈ 2.32 µg/mL)
CCCCCC[C@H](C)C[C@H](C)[C@H]1OC(=O)[C@H](C)NC(=O)[C@H](C)NC(=O)[C@H](CC(C)C)NC(=O)[C@H](C(C)C)NC(=O)CNC(=O)[C@@H]1C [EMERICELLAMIDE B] | 40 µM | 6 µM (≈ 3.91 µg/mL)
